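Protocol summary: plate cells (96-well), add compound at 5 concentrations, incubate 48 h, interpolate endpoints linearly. Abbreviation: GI50, concentration required for 50% inhibition of growth.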 Calls of active or inactive are those of the source. Cut-off read from the data, not from the text of the source: active = GI50 up to about 1.1 µM and inactive = higher.
Assays:
Experiment in all cases: inhibition of tumour cell growth, NCI panel, 48 h
ACHN = tested on: ACHN
CCRF-CEM = tested on: CCRF-CEM
DU-145 = tested on: DU-145
HOP-92 = tested on: HOP-92
HT-29 = tested on: HT-29
Hs-578T = tested on: Hs-578T
KM12 = tested on: KM12
MCF7 = tested on: MCF7
MDA-MB-231 = tested on: MDA-MB-231
Malme-3M = tested on: Malme-3M
NCI-H460 = tested on: NCI-H460
NCI-H522 = tested on: NCI-H522
OVCAR-3 = tested on: OVCAR-3
OVCAR-4 = tested on: OVCAR-4
SF-268 = tested on: SF-268
SF-539 = tested on: SF-539
SK-MEL-28 = tested on: SK-MEL-28
SK-MEL-5 = tested on: SK-MEL-5
SR = tested on: SR
U-251 = tested on: U-251

Structure (SMILES) | GI50 (ACHN) | GI50 (CCRF-CEM) | GI50 (DU-145) | GI50 (HOP-92) | GI50 (HT-29) | GI50 (Hs-578T) | GI50 (KM12) | GI50 (MCF7) | GI50 (MDA-MB-231) | GI50 (Malme-3M) | GI50 (NCI-H460) | GI50 (NCI-H522) | GI50 (OVCAR-3) | GI50 (OVCAR-4) | GI50 (SF-268) | GI50 (SF-539) | GI50 (SK-MEL-28) | GI50 (SK-MEL-5) | GI50 (SR) | GI50 (U-251)
Clc1nc(Cl)c(CBr)c(Cl)n1 | 4.84 µM (inactive) | 0.427 µM (active) | 16.7 µM (inactive) | 2.28 µM (inactive) | 4.29 µM (inactive) | 3.8 µM (inactive) | 2.71 µM (inactive) | 5.37 µM (inactive) | 1.9 µM (inactive) | 4.16 µM (inactive) | 4.3 µM (inactive) | 1.5 µM (inactive) | 5.45 µM (inactive) | 6.34 µM (inactive) | 8.02 µM (inactive) | 2.99 µM (inactive) | 5.74 µM (inactive) | 4.01 µM (inactive) | 1.74 µM (inactive) | 4.06 µM (inactive)
CC(=O)N1N=C(N)CC1=O | > 100 µM (inactive) | > 100 µM (inactive) | > 100 µM (inactive) | > 100 µM (inactive) | > 100 µM (inactive) | > 100 µM (inactive) | > 100 µM (inactive) | > 100 µM (inactive) | > 100 µM (inactive) | > 100 µM (inactive) | > 100 µM (inactive) | > 100 µM (inactive) | > 100 µM (inactive) | > 100 µM (inactive) | > 100 µM (inactive) | > 100 µM (inactive) | > 100 µM (inactive) | > 100 µM (inactive) | > 100 µM (inactive) | > 100 µM (inactive)
O=[N+]([O-])C(C(Cl)=C(Cl)Cl)=C(n1nnc2ccccc21)n1nnc2ccccc21 | 25.6 µM (inactive) | 18.6 µM (inactive) | > 86.3 µM (inactive) | 43.5 µM (inactive) | 26 µM (inactive) | 35.8 µM (inactive) | > 58.5 µM (inactive) | 28.1 µM (inactive) | 20.4 µM (inactive) | 21.7 µM (inactive) | 51.6 µM (inactive) | 18.5 µM (inactive) | 24.9 µM (inactive) | 36.9 µM (inactive) | 30.1 µM (inactive) | 28.2 µM (inactive) | 23.5 µM (inactive) | 34.2 µM (inactive) | 8.45 µM (inactive) | 36.1 µM (inactive)
Cc1ccc2c(c1)C(=O)/C(=C1/CCc3ccc(C)cc31)C2 | > 100 µM (inactive) | 86.5 µM (inactive) | > 100 µM (inactive) | > 100 µM (inactive) | > 100 µM (inactive) | > 100 µM (inactive) | > 100 µM (inactive) | > 100 µM (inactive) | 27.8 µM (inactive) | > 100 µM (inactive) | > 100 µM (inactive) | 32.4 µM (inactive) | > 100 µM (inactive) | 30.4 µM (inactive) | > 100 µM (inactive) | 54.7 µM (inactive) | > 100 µM (inactive) | > 100 µM (inactive) | 35.6 µM (inactive) | > 100 µM (inactive)
COc1ccccc1C1C2=C(COC2=O)Oc2cc3c(cc21)OCO3 (stereo not given) | 14 µM (inactive) | 2.13 µM (inactive) | 3.39 µM (inactive) | 8.3 µM (inactive) | 1.65 µM (inactive) | 2.22 µM (inactive) | 1.33 µM (inactive) | 1.67 µM (inactive) | 3.45 µM (inactive) | 14.1 µM (inactive) | 3.64 µM (inactive) | 0.619 µM (active) | 2.55 µM (inactive) | 11.7 µM (inactive) | 4.88 µM (inactive) | 1.97 µM (inactive) | 4.73 µM (inactive) | 1.93 µM (inactive) | 0.792 µM (active) | 3.66 µM (inactive)
COc1c(CC=C(C)C)c(O)c(C(CC(C)C)c2c(O)c(CC=C(C)C)c(O)c(C(C)=O)c2O)c(O)c1C(C)=O (stereo not given) | 1.1 µM (active) | 0.278 µM (active) | 2.32 µM (inactive) | 0.191 µM (active) | 0.723 µM (active) | 1.07 µM (active) | 0.998 µM (active) | 0.385 µM (active) | 1.64 µM (inactive) | 0.638 µM (active) | 0.589 µM (active) | 0.2 µM (active) | 1.15 µM (inactive) | 1.44 µM (inactive) | 0.323 µM (active) | 1.16 µM (inactive) | 0.695 µM (active) | 0.482 µM (active) | 1.1 µM (active) | 0.703 µM (active)
Br[Se]c1ccccn1 | 16.3 µM (inactive) | 27.6 µM (inactive) | 16.7 µM (inactive) | 18.5 µM (inactive) | 25.3 µM (inactive) | 18.7 µM (inactive) | 17.3 µM (inactive) | 17.7 µM (inactive) | 17.7 µM (inactive) | 17.4 µM (inactive) | 18.9 µM (inactive) | 16.4 µM (inactive) | 15.5 µM (inactive) | 16.9 µM (inactive) | 18.2 µM (inactive) | 15.8 µM (inactive) | 19.6 µM (inactive) | 15.6 µM (inactive) | 23.4 µM (inactive) | 15.6 µM (inactive)

Reference: ChEMBL document CHEMBL1201862, “PubChem BioAssay data set” (2004)
